Read-outs that look alike come from different tables or passages of the source.
What was measured:
[1] = test system: WA09 hES cells
Procedure: Phase I hES Cell Compound Exposure. hES cells were treated with a test compound at a single concentration equivalent to the compound's published therapeutic Cmax. […] This was done to ensure that enough cells were present at the time of sample collection to provide a signal for LC-HRMS analysis. For test compound exposure, all compound stock solutions, with the exception of valproic acid, were made with DMSO (Sigma-Aldrich). […] Each 96-well plate included media controls with and without test compound, 0.1% DMSO solvent control cells and cells exposed to a single concentration of eight different test compounds (FIG. 1A). Media controls were included on each plate to assess the impact of test compound on the sample matrix. hES cells were exposed to the test compound for 72 hours, with media and test compound replacement every 24 hours. Cells were monitored throughout the treatment period to ensure that no differentiation was occurring. After 72 hours of treatment, the spent media from the final 24-hour treatment period was collected and added to acetonitrile (Sigma-Aldrich, final acetonitrile concentration 40%), to halt metabolic processes and precipitate proteins from solution. Individual wells from each 96-well plate were collected and analyzed as separate samples. These samples were then stored at −80° C. until prepared for LC-HRMS analysis. Cell viability was assessed using the CellTiter-Fluor Cell Viability Assay as per the manufacturer's instructions (Promega, Madison, Wis.). Quality control parameters were set such that if the coefficient of variation (CV) for the viability relative fluorescent units (RFU) of the 6 cellular samples in a treatment exceeded 10% and no outliers were identified using the Grubb's test (see the worldwide web at graphpad.com/quickcalcs/Grubbs1.cfm), analysis was halted for that compound and the cell culture experiment was repeated. If outliers were present, the outlier sample was removed from analysis. If the CV for the DMSO control cell samples on a plate were outside of the quality control parameters, the entire plate was repeated. hES cell exposure to each of the 23 compounds was replicated a total of nine times.
(§1) Phase 2 hES Cell Compound Exposure. […] The standard compound exposure levels used for most compounds were nine, 3-fold dilutions ranging from 0.04 μM-300 μM (FIG. 1B). […] The stock solution was diluted 1:1000 in mTeSR1 media and subsequent dilutions were performed in mTeSR1 containing 0.1% DMSO such that the final concentration of DMSO was 0.1% in all treatments. hES cells were treated for 72 hours and spent media from the last 24-hour treatment period was collected and added to acetonitrile containing ^13C6 labeled arginine (Cambridge Isotope Laboratories, Andover, Md.) as described under Phase 1. Spent media samples were stored at −80° C. until prepared for LC-HRMS analysis. Cell viability was assessed using the CellTiter-Fluor Cell Viability Assay. A quality control step was included with criteria that the CV of the measured viability RFU of the DMSO control cells could not exceed 10% for a plate to undergo LC-HRMS analysis. A dose response curve was fit to the reference treatment (0.1% DMSO treated control cells) normalized data (Viability RFUTrt X/Viability RFUDMSO) using a four-parameter log-logistic model with the R package “drc” (Ritz and Streibig, 2005, J Statistical Software; 12:1-22).
Phase 2 Prediction of Developmental Toxicity Potential. […] FIG. 2 illustrates how the assay is applied in this situation. A test compound is considered to be teratogenic at the exposure level where the o/c ratio exceeds the teratogenicity threshold (red box, FIG. 2).

[2] = cited from earlier work
[3] = summarized from TERIS and Briggs et al. 2011, cited from earlier work; for Preclinical in vivo and known human developmental effects: test set compounds; for Preclinical in vivo developmental effects: application set compounds
[4] = test system: WA09 hES cells; assay: Phase 2 targeted biomarker assay, ornithine/cystine ratio, 9-point dose response; settings: for Teratogenicity Potential (μM) O/C Ratio: human, 72 h
Text: Undifferentiated hES Cell Line Maintenance (Phases 1 and 2). WA09 hES cells were obtained from the WiCell Research Institute (Madison, Wis.) and were maintained in feeder free conditions using mTeSR1 media (StemCell Technologies, Inc., Vancouver, BC, Canada) on hESC-qualified Matrigel (BD Biosciences, San Jose, Calif.) coated 6-well plates. To maintain the undifferentiated stem cell population, differentiated colonies were removed daily through aspiration and media was replaced. Additionally, the hES cells were only used in experiments up to passage 40 and were karyotyped approximately every 10 passages to minimize and monitor the potential for genetic instability. hES cells were passaged at 90-95% confluency (approximately every 7 days) using Versene (Life Technologies, Grand Island, N.Y.). Cell cultures were maintained at 37° C. under 5% CO2.
96-well hES Cell Plating (Phases 1 and 2). All experimental treatments were carried out in 96-well plates. To minimize plating variability and increase reproducibility, hES cells were plated as a single cell suspension and maintained in an undifferentiated state during compound exposure. Prior to plating in the 96-well plates, hES cells were removed from a 6-well plate using TrypLE (Life Technologies). The cells were washed with DMEM/F12 (Life Technologies) and resuspended in mTeSR1 containing 10 μM Y27632 Rho-associated kinase (ROCK) inhibitor (Merck KGaA/Calbiochem, Darmstadt, Germany). The ROCK inhibitor is added to the plating media to increase plating efficiency by decreasing dissociation-induced apoptosis. The inner 60 wells of hESC-qualified Matrigel coated 96-well plates were seeded at a density of 100,000 cells per well. The outer wells of the plate contained an equal volume media to minimize differences in humidity across the plate. Compound exposure began 24 hours after plating.
as §1
Sample Preparation (Phases 1 and 2). High molecular weight constituents (>10 KDa) of the spent media samples were removed using a Millipore Multiscreen Ultracel-10 filter plate (EMD Millipore, Billerica, Mass.). Prior to sample filtration, the filter plate was washed with 0.1% NaOH to remove a known contaminant polymer. The plate was then rinsed twice with HPLC-grade water to remove residual polymers and NaOH. Spent media samples were added to the washed filter plate. In Phase 1, samples were spiked with ^13C6 labeled arginine. Samples were centrifuged at 2,000×g at 4° C. for 200 minutes. The filtrate was collected and concentrated overnight in a Savant High Capacity Speedvac Plus Concentrator.

[5] = test system: Rabbit; settings: cited from earlier work
[6] = test system: Rodent; settings: cited from earlier work; for Rodent in vivo test results: Embryotoxic: embryotoxic effect in the absence of teratogenic effects and maternal toxicity; for Rodent in vivo test results: Teratogenic: structural malformations in the absence of maternal toxicity; for Rodent developmental toxicity testing, result in words: relation to maternal toxicity where stated
[7] = test system: Humans; settings: cited from earlier work
[8] = test set, therapeutic peak plasma in vivo concentration, human
[9] = application set, peak plasma concentration in humans

CO[C@H]1C[C@@H]2CC[C@@H](C)[C@@](O)(O2)C(=O)C(=O)N2CCCC[C@H]2C(=O)O[C@H]([C@H](C)C[C@@H]2CC[C@@H](OCCO)[C@H](OC)C2)CC(=O)[C@H](C)/C=C(\C)[C@@H](O)[C@@H](OC)C(=O)[C@H](C)C[C@H](C)/C=C/C=C/C=C/1C [Everolimus]
Viability Prediction [1]: NON
Teratogenicity Potential (μM) Cell Viability ([1]; human, 72 h): 5.2 µM
Cmax [2, 8]: 0.02 µM
Preclinical in vivo and known human developmental effects [3]: Skeletal, embryo toxicity^c
Classification by o/c ratio in the targeted biomarker assay [4]: classified as a teratogen
O/C Ratio Prediction [4]: TER
Targeted Biomarker Assay prediction [4]: TER
Teratogenicity Potential (μM) O/C Ratio [4]: <0.04 µM
Rabbit prediction ([5]; training and test set): NON
Rodent prediction ([6]; training and test set): TER
Humans (known human developmental toxicity) ([7]; training and test set): TER

Nc1nc(NC2CC2)c2ncn([C@H]3C=C[C@@H](CO)C3)c2n1 [Abacavir]
Teratogenicity Potential (μM) Cell Viability ([1]; human, 72 h): 94.1 µM
Cmax [2, 9]: 14.9 µM
Preclinical in vivo developmental effects [3]: Skeletal, embryo toxicity^c
Targeted Biomarker Assay prediction [4]: NON
Teratogenicity Potential (μM) O/C Ratio [4]: 95.1 µM
Rabbit prediction ([5]; application set): NON
Rodent prediction ([6]; application set): TER
Rodent in vivo test results: Embryotoxic ([6]; application set): +
Rodent in vivo test results: Teratogenic ([6]; application set): +

Cn1c(=O)c2c(ncn2C)n(C)c1=O [Caffeine]
Teratogenicity Potential (μM) Cell Viability ([1]; human, 72 h): >300 µM
Cmax ([2]; training set, therapeutic peak plasma in vivo concentration, human): 9.3 µM
Humans (known human developmental toxicity) ([7]; in vivo): NON

C[C@H]1[C@H](OC(=O)CCC(=O)O)O[C@@H]2O[C@@]3(C)CC[C@H]4[C@H](C)CC[C@@H]1[C@@]24OO3 [Artesunate]
Teratogenicity Potential (μM) Cell Viability ([1]; human, 72 h): 0.58 µM
Cmax [2, 9]: 73.9 µM
Targeted Biomarker Assay prediction [4]: TER

CCN(CC)C(=O)/C(C#N)=C/c1cc(O)c(O)c([N+](=O)[O-])c1 [Entacapone]
Teratogenicity Potential (μM) Cell Viability ([1]; human, 72 h): 127 µM
Cmax [2, 9]: 3.9 µM
Preclinical in vivo developmental effects [3]: Eye defects
Targeted Biomarker Assay prediction [4]: TER
Teratogenicity Potential (μM) O/C Ratio [4]: 6.7 µM
Rabbit prediction ([5]; application set): NON
Rodent prediction ([6]; application set): TER
Rodent in vivo test results: Teratogenic ([6]; application set): +

COc1ccccc1Oc1c(NS(=O)(=O)c2ccc(C(C)(C)C)cc2)nc(-c2ncccn2)nc1OCCO [Bosentan]
Viability Prediction [1]: NON
Teratogenicity Potential (μM) Cell Viability ([1]; human, 72 h): 221.9 µM
Cmax [2, 8]: 2 µM
Preclinical in vivo and known human developmental effects [3]: Craniofacial,
O/C Ratio Prediction [4]: NON
Targeted Biomarker Assay prediction [4]: NON
Teratogenicity Potential (μM) O/C Ratio [4]: 44.9 µM
Rabbit prediction ([5]; training and test set): NON
Rodent prediction ([6]; training and test set): TER
Humans (known human developmental toxicity) ([7]; training and test set): TER

CCC(=O)NCC[C@@H]1CCc2ccc3c(c21)CCO3 [Ramelteon]
Teratogenicity Potential (μM) Cell Viability ([1]; human, 72 h): >300 µM
Cmax [2, 9]: 0.02 µM
Preclinical in vivo developmental effects [3]: None
Targeted Biomarker Assay prediction [4]: NON
Teratogenicity Potential (μM) O/C Ratio [4]: 34 µM
Rabbit prediction ([5]; application set): NON
Rodent prediction ([6]; application set): NON
Rodent developmental toxicity testing, result in words [6]: only embryotoxic at exposure levels that also caused maternal toxicity

CC(C)(C)C(=O)OCOP(=O)(COCCn1cnc2c(N)ncnc21)OCOC(=O)C(C)(C)C [Adefovir dipivoxil]
Teratogenicity Potential (μM) Cell Viability ([1]; application set, interpolated concentration where cell viability dose response curve crosses teratogenicity threshold 0.88, 72 hours): 0.02 µM
Cmax [2, 9]: 0.03 µM
Targeted Biomarker Assay prediction [4]: TER
Rodent developmental toxicity testing, result in words [6]: only embryotoxic at exposure levels that also caused maternal toxicity

Nc1ccn(C[C@@H](CO)OCP(=O)(O)O)c(=O)n1 [Cidofovir]
Teratogenicity Potential (μM) Cell Viability ([1]; human, 72 h): 1.9 µM
Cmax [2, 9]: 41.2 µM
Preclinical in vivo developmental effects [3]: None
Targeted Biomarker Assay prediction [4]: TER
Teratogenicity Potential (μM) O/C Ratio [4]: 0.3 µM
Rabbit prediction ([5]; application set): NON
Rodent prediction ([6]; application set): NON
Rodent developmental toxicity testing, result in words [6]: only embryotoxic at exposure levels that also caused maternal toxicity

CC(C)CN(C[C@@H](O)[C@H](Cc1ccccc1)NC(=O)O[C@H]1CCOC1)S(=O)(=O)c1ccc(N)cc1 [Amprenavir]
Teratogenicity Potential (μM) Cell Viability ([1]; human, 72 h): 259.5 µM
Cmax [2, 9]: 15.1 µM
Preclinical in vivo developmental effects [3]: Skeletal, embryo toxicity^c
Targeted Biomarker Assay prediction [4]: NON
Teratogenicity Potential (μM) O/C Ratio [4]: 236.9 µM
Rabbit prediction ([5]; application set): TER
Rodent prediction ([6]; application set): TER
Rodent in vivo test results: Embryotoxic ([6]; application set): +
Rodent in vivo test results: Teratogenic ([6]; application set): +

Nc1nc2c(ncn2COCCO)c(=O)[nH]1 [Acycloguanosine]
Teratogenicity Potential (μM) Cell Viability ([1]; human, 72 h): >300 µM
Viability Prediction ([1]; test set, teratogenicity potential scored against therapeutic Cmax): NON
Cmax [2, 8]: 3 µM
Targeted Biomarker Assay prediction [4]: NON
Humans (known human developmental toxicity) ([7]; training and test set): NON

N[C@@H](CC(=O)N1CCn2c(nnc2C(F)(F)F)C1)Cc1cc(F)c(F)cc1F [Sitagliptin]
Viability Prediction [1]: NON
Teratogenicity Potential (μM) Cell Viability ([1]; human, 72 h): >300 µM
Cmax [2, 8]: 0.95 µM
Preclinical in vivo and known human developmental effects [3]: Low doses: None; High
O/C Ratio Prediction [4]: NON
Targeted Biomarker Assay prediction [4]: NON
Teratogenicity Potential (μM) O/C Ratio [4]: 22.6 µM
Rabbit prediction ([5]; training and test set): NON
Rodent prediction ([6]; training and test set): TER
Humans (known human developmental toxicity) ([7]; training and test set): NON
